Consider 29 molecules from patent publication US20150141381A1, “TETRACYCLINE COMPOUNDS HAVING TARGET THERAPEUTIC ACTIVITIES” (Paratek Pharmaceuticals, Inc., priority 2001, published 2015).

The structures appear in SMILES notation. Where two headings read alike, the source gives them in different places. A value given as a limit tells only on which side of the number the result lay.

For assay [1], the system named is E. coli mL308 225. Kind of assay: In Vitro Anti-Bacterial Activity Assay (MIC), gram negative. The format is cell-based. The note with it: for MIC: Escherichia coli, ML308225, 18 h.
The test system of assay [2] is S. aureus RN450. Kind of assay: In Vitro Anti-Bacterial Activity Assay (MIC), gram positive. The format is cell-based. The note with it: for MIC: Staphylococcus aureus, RN450, 18 h.
[3] abbreviates: gram negative bacteria, read-out: Antibiotic Activity Gram − (MIC).
Where [4] appears, read: gram positive bacteria, read-out: Antibiotic Activity Gram + (MIC).
The mark [5] stands for this setting: MIC class, Table 3, read-out: Antibiotic Activity Gram −.
Setting [6] is: MIC class, Table 3, read-out: Antibiotic Activity Gram +.
Setting [7] is: MIC class, Table 3 (Continued), read-out: Gram− activity.
The mark [8] stands for this setting: MIC class, Table 3 (Continued), read-out: Gram+ activity.

In the case of `COc1ccc(-c2ccc(O)c3c2C[C@H]2C[C@H]4[C@H](N(C)C)C(O)=C(C(N)=O)C(=O)[C@@]4(O)C(O)=C2C3=O)cc1` [drawing 3312], in assay [1] (MIC class, Table 3 (Continued)), the “Gram− activity” value is “** (compounds with MIC less than or equal to 4 μg/ml are indicated with **)”. For the same molecule, in assay [2] (MIC class, Table 3 (Continued)), the “Gram+ activity” value is given as “** (compounds with MIC less than or equal to 4 μg/ml are indicated with **)”.
As for `CC(=O)Cc1cc(-c2ccccn2)c2c(c1O)C(=O)C1=C(O)[C@]3(O)C(=O)C(C(N)=O)=C(O)[C@@H](N(C)C)[C@@H]3C[C@@H]1C2`, the MIC in assay [1] (setting [3]) and in assay [2] (setting [4]) was above 4 µg/mL each time.
On to `C/C(=N/OCC(C)C)c1ccc(O)c2c1C[C@H]1C[C@H]3[C@H](N(C)C)C(O)=C(C(N)=O)C(=O)[C@@]3(O)C(O)=C1C2=O`, for which the MIC in assay [1] (setting [3]) and in assay [2] (setting [4]) was below 4 µg/mL throughout.
Consider `COC(=O)C1CCN(CC(=O)Nc2ccc(-c3ccc(O)c4c3C[C@H]3C[C@H]5[C@H](N(C)C)C(O)=C(C(N)=O)C(=O)[C@@]5(O)C(O)=C3C4=O)cc2)CC1`, for which the MIC in assay [1] (setting [3]) was above 4 µg/mL; in assay [2] (setting [4]), below 4 µg/mL.
With `COC(=O)c1cc(N(C)C)c2c(c1O)C(=O)C1=C(O)[C@]3(O)C(=O)C(C(N)=O)=C(O)C(N(C)C)[C@@H]3C[C@@H]1C2` (stereo partly shown) [MO], the MIC in assay [1] (setting [5]) and in assay [2] (setting [6]) was above 4 µg/mL in each case.
Consider `CN(C)c1cc(C#Cc2ccc(F)cc2)c(O)c2c1C[C@H]1C[C@H]3[C@H](N(C)C)C(O)=C(C(N)=O)C(=O)[C@@]3(O)C(O)=C1C2=O`, for which the MIC in assay [1] (setting [7]) and in assay [2] (setting [8]) was below 4 µg/mL throughout.
For `CC(C)NCc1ccc(-c2ccc(O)c3c2C[C@H]2C[C@H]4[C@@H](N(C)C)C(O)=C(C(N)=O)C(=O)[C@@]4(O)C(O)=C2C3=O)o1` [HN], the MIC in assay [1] (setting [5]) and in assay [2] (setting [6]) was below 4 µg/mL throughout.
As for `CN(C)[C@@H]1C(O)=C(C(N)=O)C(=O)[C@@]2(O)C(O)=C3C(=O)c4c(O)c(S(=O)(=O)O)cc(Cl)c4C=C3C[C@@H]12`, the MIC in assay [1] (setting [3]) and in assay [2] (setting [4]) was above 4 µg/mL throughout.
Turning to `CN(C)[C@@H]1C(O)=C(C(N)=O)C(=O)[C@@]2(O)C(O)=C3C(=O)c4c(O)c(NC(=O)OCC(C)(C)C)cc(CN)c4C[C@H]3C[C@@H]12` [HP], the MIC in assay [1] (setting [5]) and in assay [2] (setting [6]) was above 4 µg/mL in each case.
As for `CN(C)c1cc(NS(=O)(=O)c2ccccc2)c(O)c2c1C[C@H]1C[C@H]3[C@H](N(C)C)C(O)=C(C(N)=O)C(=O)[C@@]3(O)C(O)=C1C2=O` [AE], the MIC in assay [1] (setting [5]) and in assay [2] (setting [6]) was below 4 µg/mL throughout.
Turning to `CCCOc1cccc2c1C(=O)C1=C(O)[C@]3(O)C(=O)C(C(N)=O)=C(O)[C@@H](N(C)C)[C@@H]3C[C@@H]1C2` [drawing 3586], the “Antibiotic Activity Gram − (MIC)” value in assay [1] (gram negative bacteria) is recorded as “* (compounds with an MIC of greater than 4 μg/ml are indicated with *)”. In addition, the “Antibiotic Activity Gram + (MIC)” value in assay [2] (gram positive bacteria) is reported as “* (compounds with an MIC of greater than 4 μg/ml are indicated with *)”.
With `CN(C)c1cc(N2CCCCC2)c(O)c2c1C[C@H]1C[C@H]3[C@H](N(C)C)C(O)=C(C(N)=O)C(=O)[C@@]3(O)C(O)=C1C2=O` [NK], the MIC in assay [1] (setting [5]) and in assay [2] (setting [6]) was above 4 µg/mL in each case.
Take `CC(=O)OCC(=O)Nc1ccc(-c2ccc(O)c3c2C[C@H]2C[C@H]4[C@H](N(C)C)C(O)=C(C(N)=O)C(=O)[C@@]4(O)C(O)=C2C3=O)cc1`: the MIC was above 4 µg/mL in assay [1] (setting [3]) and below 4 µg/mL in assay [2] (setting [4]).
Take `CCCCCCc1ccc(O)c2c1C[C@H]1C[C@H]3[C@H](N(C)C)C(O)=C(C(N)=O)C(=O)[C@@]3(O)C(O)=C1C2=O`: the MIC in assay [1] (setting [3]) and in assay [2] (setting [4]) was below 4 µg/mL throughout.
In the case of `CN(C)[C@@H]1C(O)=C(C(N)=O)C(=O)[C@@]2(O)C(O)=C3C(=O)c4c(O)ccc(-c5ccc(CNc6cccnc6)cc5)c4C[C@H]3C[C@@H]12`, the MIC in assay [1] (setting [3]) is above 4 µg/mL; in assay [2] (setting [4]) it was below 4 µg/mL.
For `COC(=O)C1CCN(Cc2ccc(-c3ccc(O)c4c3C[C@H]3C[C@H]5[C@H](N(C)C)C(O)=C(C(N)=O)C(=O)[C@@]5(O)C(O)=C3C4=O)cc2)CC1`, in that order: below 4 µg/mL and below 4 µg/mL.
Take `COc1ccc(-c2ccc(O)c3c2C[C@H]2C[C@H]4[C@H](N(C)C)C(O)=C(C(N)=O)C(=O)[C@@]4(O)C(O)=C2C3=O)cc1CN(C)C` [IT]: the MIC in assay [1] (setting [5]) and in assay [2] (setting [6]) was below 4 µg/mL each time.
As for `CN(C)[C@@H]1C(O)=C(C(N)=O)C(=O)[C@@]2(O)C(O)=C3C(=O)c4c(ccc(NC5CCN(Cc6ccccc6)CC5)c4O)C[C@H]3C[C@@H]12`, the MIC in assay [1] (setting [3]) and in assay [2] (setting [4]) was above 4 µg/mL in each case.
Take `CN(C)c1cc(CN(Cc2ccn[nH]2)Cc2ccn[nH]2)c(O)c2c1C[C@H]1C[C@H]3[C@H](N(C)C)C(O)=C(C(N)=O)C(=O)[C@@]3(O)C(O)=C1C2=O`: the MIC in assay [1] (setting [3]) and in assay [2] (setting [4]) was above 4 µg/mL each time.
`CCCc1ccc(O)c2c1C[C@H]1C[C@H]3[C@H](N(C)C)C(O)=C(C(N)=O)C(=O)[C@@]3(O)C(O)=C1C2=O`: the MIC in assay [1] (setting [3]) and in assay [2] (setting [4]) was below 4 µg/mL each time.
As for `CN(C)[C@@H]1C(O)=C(C(N)=O)C(=O)[C@@]2(O)C(O)=C3C(=O)c4c(O)ccc(CN5CCCC5)c4C[C@H]3C[C@@H]12`, the MIC in assay [1] (setting [3]) and in assay [2] (setting [4]) was below 4 µg/mL each time.
Consider `CCCOC(=O)Nc1ccc(-c2ccc(O)c3c2C[C@H]2C[C@H]4[C@H](N(C)C)C(O)=C(C(N)=O)C(=O)[C@@]4(O)C(O)=C2C3=O)cc1`, for which the MIC in assay [1] (setting [3]) and in assay [2] (setting [4]) was below 4 µg/mL throughout.
For the molecule `CC#Cc1cc(N(C)C)c2c(c1O)C(=O)C1=C(O)[C@]3(O)C(=O)C(C(N)=O)=C(O)[C@@H](N(C)C)[C@@H]3C[C@@H]1C2`, the MIC in assay [1] (setting [7]) and in assay [2] (setting [8]) was above 4 µg/mL throughout.
For `COC(=O)c1ccc(CNCc2cc(N(C)C)c3c(c2O)C(=O)C2=C(O)[C@]4(O)C(=O)C(C(N)=O)=C(O)[C@@H](N(C)C)[C@@H]4C[C@@H]2C3)cc1`, the MIC in assay [1] (setting [3]) is above 4 µg/mL; in assay [2] (setting [4]) it was below 4 µg/mL.
For `CCCCN(c1ccc2c(c1O)C(=O)C1=C(O)[C@]3(O)C(=O)C(C(N)=O)=C(O)[C@@H](N(C)C)[C@@H]3[C@@H](O)[C@@H]1[C@H]2C)C1CCN(C)CC1`, in that order: above 4 µg/mL and below 4 µg/mL.
On to `CN(C)[C@@H]1C(O)=C(C(N)=O)C(=O)[C@@]2(O)C(O)=C3C(=O)c4c(O)ccc(-c5ccc(O)nc5)c4C[C@H]3C[C@@H]12`, for which the MIC in assay [1] (setting [3]) and in assay [2] (setting [4]) was below 4 µg/mL throughout.
Turning to `CC(C)N1CCC(Nc2ccc3c(c2O)C(=O)C2=C(O)[C@]4(O)C(=O)C(C(N)=O)=C(O)[C@@H](N(C)C)[C@@H]4C[C@@H]2C3)CC1`, the results for the MIC in assay [1] (setting [3]) and in assay [2] (setting [4]) were above 4 µg/mL and below 4 µg/mL, respectively.
Consider `CN(C)c1cc2c(c3c1C[C@H]1C[C@H]4[C@H](N(C)C)C(O)=C(C(N)=O)C(=O)[C@@]4(O)C(O)=C1C3=O)OC(=O)N(CC(C)(C)C)C2`, for which the MIC in assay [1] (setting [3]) and in assay [2] (setting [4]) was above 4 µg/mL throughout.
For the molecule `CN(C)[C@@H]1C(O)=C(C(N)=O)C(=O)[C@@]2(O)C(O)=C3C(=O)c4c(O)ccc(-c5cccc(NC(=O)c6ccno6)c5)c4C[C@H]3C[C@@H]12`, the MIC in assay [1] (setting [3]) was above 4 µg/mL; in assay [2] (setting [4]), below 4 µg/mL.
